In ChEMBL document CHEMBL1147973, “Ligand based virtual screening and biological evaluation of inhibitors of chorismate mutase (Rv1885c) from Mycobacterium tuberculosis H37Rv” (Bioorg Med Chem Lett, 2007):

Each molecule was assayed against T1, Secreted chorismate mutase (Mycobacterium tuberculosis, UniProt P9WIB9) (assay: Inhibition of chorismate mutase in Mycobacterium tuberculosis H37Rv strain).
T1 sequence (P9WIB9 whole entry): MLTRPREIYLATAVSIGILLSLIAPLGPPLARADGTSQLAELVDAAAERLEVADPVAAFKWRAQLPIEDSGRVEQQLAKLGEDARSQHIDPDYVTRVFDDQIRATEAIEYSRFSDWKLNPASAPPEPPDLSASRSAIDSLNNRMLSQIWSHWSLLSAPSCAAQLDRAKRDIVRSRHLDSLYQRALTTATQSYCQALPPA
In the case of COc1cc(/C=C(\C(=O)O)c2ccc(Cl)cc2)c([N+](=O)[O-])cc1OC, the Ki is reported as 17.7 µM.
CC(C)CC(NC(=O)C1CSC(c2ccccc2)N1C(=O)OC(C)(C)C)C(=O)O (centres undefined) was tested, and the Ki was 21.1 µM.
Molecule CNc1ccc(C(=O)OC)cc1[N+](=O)[O-] has a Ki of 28.8 µM.
COc1ccc(CCNc2c([N+](=O)[O-])cc(C(=O)O)cc2S(N)(=O)=O)cc1OC showed a Ki of 5.7 µM.
